# From article PMC12655351, “Synthesis and Anticancer Activity Evaluation of New 5-((5-Nitrofuran-2-yl)allylidene)-2-thioxo-4-thiazolidinones” (Pharmaceuticals, 2025)
# Key:
# CCRF-CEM = details: 48 h
# SR = details: 48 h
# NCI-H23 [1] = details: NCI-H23, 48 h
# LOX IMVI [2] = details: LOX IMVI, 48 h
# MDA-MB-435 [3] = details: MDA-MB-435, 48 h
# 786-0 = details: 786-0, 48 h
# CAKI-1 [4] = details: CAKI-1, 48 h
# TK-10 [5] = details: TK-10, 48 h
# HS 578T = details: 48 h
# CNS cancer = CNS cancer subpanel
# Ovarian cancer [6] = details: Ovarian cancer subpanel
# Breast cancer = Breast cancer subpanel
# K-562 = assay: cells; details: Homo sapiens, K562, 48 h; for GI50: K-562, 48 h; for CC50: read-out: LC50
# MOLT-4 = assay: cells; details: Homo sapiens, MOLT-4, 48 h; for CC50: read-out: LC50, MOLT-4, 48 h
# NCI-H23 [7] = assay: cells; details: Homo sapiens, NCI-H23, 48 h; for CC50: read-out: LC50, NCI-H23, 48 h
# HCT-116 = assay: cells; details: Homo sapiens, HCT-116, 48 h
# HT29 = assay: cells; details: Homo sapiens, HT-29, 48 h; for GI50: HT29, 48 h; for CC50: read-out: LC50, HT29, 48 h
# LOX IMVI [8] = assay: cells; details: Homo sapiens, 48 h; for CC50: read-out: LC50, LOX IMVI, 48 h
# MDA-MB-435 [9] = assay: cells; details: Homo sapiens, MDA-MB-435, 48 h; for CC50: read-out: LC50, MDA-MB-435, 48 h
# UACC-257 = assay: cells; details: Homo sapiens, UACC-257, 48 h; for CC50: read-out: LC50, UACC-257, 48 h
# CAKI-1 [10] = assay: cells; details: Homo sapiens, CAKI-1, 48 h
# SN12C = assay: cells; details: Homo sapiens, 48 h; for CC50: read-out: LC50, SN12C, 48 h
# TK-10 [11] = assay: cells; details: Homo sapiens, TK-10, 48 h; for CC50: read-out: LC50, TK-10, 48 h
# BT-549 = assay: cells; details: Homo sapiens, BT-549, 48 h; for CC50: read-out: LC50, BT-549, 48 h
# T-47D = assay: cells; details: Homo sapiens, T47D, 48 h; for GI50: T-47D
# Melanoma = assay: cells; details: Homo sapiens; for GI50: read-out: MG_MID GI50; for CC50: read-out: MG_MID LC50
# Ovarian cancer [12] = assay: cells; details: Homo sapiens; for GI50: read-out: MG_MID GI50; for CC50: read-out: MG_MID LC50
# Renal Cancer = assay: cells; details: Homo sapiens; for GI50: read-out: MG_MID GI50; for CC50: read-out: MG_MID LC50
# A549/ATCC = assay: NCI-60 SRB screen; details: for TGI: 48 h; for GI50: Homo sapiens, A549, 48 h
# EKVX = assay: NCI-60 SRB screen; details: 48 h; for GI50 / CC50: Homo sapiens; for CC50: read-out: LC50, EKVX, 48 h
# NCI-H266 = assay: NCI-60 SRB screen; details: for GI50 / CC50: Homo sapiens, 48 h; for GI50 / TGI: NCI-H266, 48 h; for CC50: read-out: LC50, NCI-H266, 48 h
# SF-295 = assay: NCI-60 SRB screen; details: SF-295, 48 h; for GI50 / CC50: Homo sapiens; for CC50: read-out: LC50, SF-295, 48 h
# SNB-75 = assay: NCI-60 SRB screen; details: SNB-75, 48 h; for GI50 / CC50: Homo sapiens; for CC50: read-out: LC50, SNB-75, 48 h
# U251 = assay: NCI-60 SRB screen; details: for GI50 / CC50: Homo sapiens, U-251, 48 h; for GI50 / TGI: U251, 48 h; for CC50: read-out: LC50, U251, 48 h
# M14 = assay: NCI-60 SRB screen; details: M14, 48 h; for GI50 / CC50: Homo sapiens; for CC50: read-out: LC50, M14, 48 h
# SK-MEL-2 = assay: NCI-60 SRB screen; details: SK-MEL-2, 48 h; for GI50 / CC50: Homo sapiens; for CC50: read-out: LC50, SK-MEL-2, 48 h
# IGROV1 = assay: NCI-60 SRB screen; details: for GI50 / CC50: Homo sapiens, IGROV-1, 48 h; for GI50 / TGI: IGROV1, 48 h; for CC50: read-out: LC50, IGROV1, 48 h
# Colon cancer = assay: NCI-60 SRB screen, subpanel; details: for MG_MID TGI: Colon cancer subpanel; for GI50 / CC50: Homo sapiens; for GI50: read-out: MG_MID GI50; for CC50: read-out: MG_MID LC50
compound,measurement,setting,value
"CCCCC(C(=O)O)N1C(=O)/C(=C/C=C/c2ccc([N+](=O)[O-])o2)SC1=S (stereo not shown) [6b, 2-((Z)-5-((E)-3-(5-nitrofuran-2-yl)allylidene)-4-oxo-2-thioxothiazolidin-3-yl)hexanoic acid]",TGI,CCRF-CEM,10.2 µM
same,TGI,SR,8.66 µM
same,TGI,NCI-H23 [1],3.51 µM
same,TGI,LOX IMVI [2],3.34 µM
same,TGI,MDA-MB-435 [3],3.95 µM
same,TGI,786-0,9.30 µM
same,TGI,CAKI-1 [4],3.29 µM
same,TGI,TK-10 [5],8.15 µM
same,TGI,HS 578T,27.4 µM
same,MG_MID TGI,CNS cancer,4.58 µM
same,MG_MID TGI,Ovarian cancer [6],9.10 µM
same,MG_MID TGI,Breast cancer,7.71 µM
same,GI50,K-562,2.6 µM
same,CC50,K-562,> 100 µM
same,GI50,MOLT-4,3.28 µM
same,CC50,MOLT-4,90.2 µM
same,GI50,NCI-H23 [7],1.85 µM
same,CC50,NCI-H23 [7],6.64 µM
same,GI50,HCT-116,1730 nM
same,GI50,HT29,1.98 µM
same,CC50,HT29,6.95 µM
same,GI50,LOX IMVI [8],1.76 µM
same,CC50,LOX IMVI [8],6.37 µM
same,GI50,MDA-MB-435 [9],1810 nM
same,CC50,MDA-MB-435 [9],6.61 µM
same,GI50,UACC-257,1.93 µM
same,CC50,UACC-257,9.62 µM
same,GI50,CAKI-1 [10],1.67 µM
same,GI50,SN12C,1.75 µM
same,CC50,SN12C,9.18 µM
same,GI50,TK-10 [11],3.13 µM
same,CC50,TK-10 [11],28.3 µM
same,GI50,BT-549,1490 nM
same,CC50,BT-549,6.55 µM
same,GI50,T-47D,1.75 µM
same,GI50,Melanoma,1.78 µM
same,CC50,Melanoma,7.07 µM
same,GI50,Ovarian cancer [12],3.32 µM
same,CC50,Ovarian cancer [12],25.7 µM
same,GI50,Renal Cancer,2.24 µM
same,CC50,Renal Cancer,17.7 µM
same,TGI,A549/ATCC,5.86 µM
same,GI50,A549/ATCC,2.33 µM
same,TGI,EKVX,5.74 µM
same,GI50,EKVX,2.26 µM
same,CC50,EKVX,19.7 µM
same,GI50,NCI-H266,2.22 µM
same,CC50,NCI-H266,76.1 µM
same,TGI,NCI-H266,5.84 µM
same,GI50,SF-295,2.23 µM
same,CC50,SF-295,13.5 µM
same,TGI,SF-295,4.99 µM
same,GI50,SNB-75,1770 nM
same,CC50,SNB-75,8.06 µM
same,TGI,SNB-75,3.77 µM
same,GI50,U251,1.91 µM
same,CC50,U251,11 µM
same,TGI,U251,4.42 µM
same,GI50,M14,1.83 µM
same,CC50,M14,7.66 µM
same,TGI,M14,3.75 µM
same,GI50,SK-MEL-2,1.7 µM
same,CC50,SK-MEL-2,6.12 µM
same,TGI,SK-MEL-2,3.22 µM
same,GI50,IGROV1,2.16 µM
same,CC50,IGROV1,18 µM
same,TGI,IGROV1,4.86 µM
same,MG_MID TGI,Colon cancer,3.57 µM
same,GI50,Colon cancer,1.81 µM
same,CC50,Colon cancer,6.66 µM
"O=C(O)C(c1ccccc1)N1C(=O)/C(=C/C=C/c2ccc([N+](=O)[O-])o2)SC1=S (stereo not shown) [9b, 2-((Z)-5-((E)-3-(5-Nitrofuran-2-yl)allylidene)-4-oxo-2-thioxothiazolidin-3-yl)-2-phenylacetic acid]",TGI,CCRF-CEM,13.3 µM
same,TGI,SR,18.0 µM
same,TGI,NCI-H23 [1],31.0 µM
same,TGI,LOX IMVI [2],25.9 µM
same,TGI,MDA-MB-435 [3],13.0 µM
same,TGI,786-0,12.8 µM
same,TGI,CAKI-1 [4],19.7 µM
same,TGI,TK-10 [5],30.0 µM
same,TGI,HS 578T,35.0 µM
same,MG_MID TGI,CNS cancer,21.7 µM
same,MG_MID TGI,Ovarian cancer [6],27.9 µM
same,MG_MID TGI,Breast cancer,22.2 µM
same,GI50,K-562,3.45 µM
same,CC50,K-562,> 100 µM
same,GI50,MOLT-4,12.1 µM
same,CC50,MOLT-4,> 100 µM
same,GI50,NCI-H23 [7],14.4 µM
same,CC50,NCI-H23 [7],66.9 µM
same,GI50,HCT-116,2680 nM
same,CC50,"HCT-116; read-out: LC50, HCT-116, 48 h",> 100 µM
same,GI50,HT29,5.02 µM
same,CC50,HT29,94.5 µM
same,GI50,LOX IMVI [8],10.8 µM
same,CC50,LOX IMVI [8],62.3 µM
same,GI50,MDA-MB-435 [9],3040 nM
same,CC50,MDA-MB-435 [9],40.6 µM
same,GI50,UACC-257,13.2 µM
same,CC50,UACC-257,56.1 µM
same,GI50,CAKI-1 [10],6.27 µM
same,GI50,SN12C,5.39 µM
same,CC50,SN12C,45 µM
same,GI50,TK-10 [11],16.1 µM
same,CC50,TK-10 [11],55.9 µM
same,GI50,BT-549,2460 nM
same,CC50,BT-549,35.7 µM
same,GI50,T-47D,11.1 µM
same,CC50,T-47D; read-out: LC50,> 100 µM
same,GI50,Melanoma,7.49 µM
same,CC50,Melanoma,48.9 µM
same,GI50,Ovarian cancer [12],13 µM
same,CC50,Ovarian cancer [12],60.3 µM
same,GI50,Renal Cancer,9.53 µM
same,CC50,Renal Cancer,50.7 µM
same,TGI,A549/ATCC,47.0 µM
same,GI50,A549/ATCC,16.8 µM
same,TGI,EKVX,28.1 µM
same,GI50,EKVX,14.3 µM
same,CC50,EKVX,55.1 µM
same,GI50,NCI-H266,12.2 µM
same,CC50,NCI-H266,89.7 µM
same,TGI,NCI-H266,33.1 µM
same,GI50,SF-295,17.4 µM
same,CC50,SF-295,58.4 µM
same,TGI,SF-295,31.9 µM
same,GI50,SNB-75,2110 nM
same,CC50,SNB-75,27.9 µM
same,TGI,SNB-75,7.39 µM
same,GI50,U251,4.11 µM
same,CC50,U251,49.8 µM
same,TGI,U251,16.5 µM
same,GI50,M14,12.6 µM
same,CC50,M14,58 µM
same,TGI,M14,27.0 µM
same,GI50,SK-MEL-2,5.64 µM
same,CC50,SK-MEL-2,49.2 µM
same,TGI,SK-MEL-2,19.7 µM
same,GI50,IGROV1,14.3 µM
same,CC50,IGROV1,66.6 µM
same,TGI,IGROV1,30.8 µM
same,MG_MID TGI,Colon cancer,19.4 µM
same,GI50,Colon cancer,6.75 µM
same,CC50,Colon cancer,66.2 µM
